Data as given in US11179383B2 (Gilead Sciences, Inc., priority 2018, dated 2021).
Read-outs that look alike come from different tables or passages of the source.

Target: T1, α4β7 integrin (Homo sapiens, UniProt P13612+P26010)
T1 construct: monitoring the capture of α4β7 integrin expressing cells on a recombinant MadCAM-1 extracellular domain-coated plate; endogenous in cells; host or cells: RPMI8866 cells
T1 sequence (P13612 34-1032): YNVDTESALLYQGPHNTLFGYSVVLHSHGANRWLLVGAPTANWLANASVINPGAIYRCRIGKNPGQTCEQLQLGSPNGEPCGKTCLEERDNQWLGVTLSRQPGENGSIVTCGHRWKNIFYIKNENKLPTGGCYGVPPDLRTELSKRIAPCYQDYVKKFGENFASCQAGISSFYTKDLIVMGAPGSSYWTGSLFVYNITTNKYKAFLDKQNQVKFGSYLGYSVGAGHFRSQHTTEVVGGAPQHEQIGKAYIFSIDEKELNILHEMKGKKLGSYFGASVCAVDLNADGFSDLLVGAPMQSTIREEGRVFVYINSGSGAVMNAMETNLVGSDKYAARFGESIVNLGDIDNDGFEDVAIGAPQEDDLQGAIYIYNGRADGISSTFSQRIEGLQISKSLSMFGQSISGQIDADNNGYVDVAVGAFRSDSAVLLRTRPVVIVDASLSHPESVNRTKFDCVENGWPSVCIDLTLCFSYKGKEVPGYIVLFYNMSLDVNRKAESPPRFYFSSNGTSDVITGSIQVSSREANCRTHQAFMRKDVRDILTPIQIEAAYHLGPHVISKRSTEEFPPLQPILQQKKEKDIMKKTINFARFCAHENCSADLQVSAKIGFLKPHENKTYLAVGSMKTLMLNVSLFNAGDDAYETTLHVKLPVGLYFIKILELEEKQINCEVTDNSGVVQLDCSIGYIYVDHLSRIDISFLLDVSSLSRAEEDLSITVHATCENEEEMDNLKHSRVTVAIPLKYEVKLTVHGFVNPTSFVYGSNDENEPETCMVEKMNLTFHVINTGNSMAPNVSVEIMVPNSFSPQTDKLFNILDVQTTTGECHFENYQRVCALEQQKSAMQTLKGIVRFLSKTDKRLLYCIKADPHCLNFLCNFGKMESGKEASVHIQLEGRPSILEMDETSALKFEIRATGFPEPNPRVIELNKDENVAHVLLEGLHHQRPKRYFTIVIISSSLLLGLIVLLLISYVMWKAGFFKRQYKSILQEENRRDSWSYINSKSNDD
T1 sequence (P26010 20-798): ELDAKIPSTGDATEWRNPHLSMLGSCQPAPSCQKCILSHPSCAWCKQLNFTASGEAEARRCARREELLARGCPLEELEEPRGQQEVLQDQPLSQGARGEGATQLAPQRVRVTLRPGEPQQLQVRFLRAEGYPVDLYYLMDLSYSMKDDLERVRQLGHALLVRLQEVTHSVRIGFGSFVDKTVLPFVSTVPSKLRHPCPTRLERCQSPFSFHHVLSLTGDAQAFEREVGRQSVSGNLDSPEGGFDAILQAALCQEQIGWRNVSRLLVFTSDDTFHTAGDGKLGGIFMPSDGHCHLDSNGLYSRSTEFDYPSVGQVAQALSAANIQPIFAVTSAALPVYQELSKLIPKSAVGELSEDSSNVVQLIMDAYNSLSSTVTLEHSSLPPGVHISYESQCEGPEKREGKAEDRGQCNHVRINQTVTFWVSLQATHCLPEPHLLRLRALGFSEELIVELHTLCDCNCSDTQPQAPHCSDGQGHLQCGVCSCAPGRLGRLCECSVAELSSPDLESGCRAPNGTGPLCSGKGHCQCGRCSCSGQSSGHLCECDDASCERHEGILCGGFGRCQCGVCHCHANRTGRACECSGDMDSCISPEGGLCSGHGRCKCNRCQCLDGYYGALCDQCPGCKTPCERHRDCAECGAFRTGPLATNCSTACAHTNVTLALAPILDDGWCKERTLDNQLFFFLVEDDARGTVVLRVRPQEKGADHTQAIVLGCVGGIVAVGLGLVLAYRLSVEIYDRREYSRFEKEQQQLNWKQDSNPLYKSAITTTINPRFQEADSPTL
Experiment: α4β7 Integrin Cell Capture Assay
Format: cell-based
Details: capture of α4β7 integrin expressing RPMI8866 cells on recombinant MadCAM-1 extracellular domain-coated plate, DMEM+0.5% FBS+0.5 mM MnCl2
Method in brief: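 RPMI8866 cells in DMEM + 0.5% FBS + 0.5 mM MnCl2 preincubated with compound 1 h at 37 °C, then allowed to bind 30 min at 37 °C to plates coated with MAdCAM-1 extracellular domain (1.0 μg/mL). Cells fixed with glutaraldehyde, Hoechst-stained, imaged and bound cells counted; EC50 from cell count versus concentration.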

SMILES	EC50 (read-out: EC50 α4β7) [nM]	EC50 (EC50 α4β7 (nM)) [nM]
O=C(N[C@@H](Cc1ccc(-c2ncc3ccccc3c2Br)c2ccccc12)C(=O)O)c1c(Cl)cccc1Cl [Example 113, (S)-3-(4-(4-bromoisoquinolin-3-yl)naphthalen-1-yl)-2-(2,6-dichlorobenzamido) propanoic acid]	12.3	–
Cn1c(=O)c(-c2ccc(C[C@H](NC(=O)c3c(Cl)cccc3Cl)C(=O)O)c3ncccc23)cc2ccccc21 [Example 21, (S)-2-(2,6-dichlorobenzamido)-3-(1-methyl-2-oxo-1,2-dihydro-[3,5′-biquinolin]-8′-yl)propanoic acid]	5.8	–
CCn1cccc(-c2ccc(C[C@H](NC(=O)c3c(Cl)cccc3Cl)C(=O)O)c3ncccc23)c1=O [Example 22, (S)-2-(2,6-dichlorobenzamido)-3-(5-(1-ethyl-2-oxo-1,2-dihydropyridin-3-yl)quinolin-8-yl)propanoic acid]	123	–
Cc1c(-c2ccc(C[C@H](NC(=O)c3c(Cl)cccc3Cl)C(=O)O)c3ncccc23)c(=O)n(C)c2ccc(Cl)cc12 (single isomer, unassigned) [Example 75]	23	–
Cc1c(-c2ccc(C[C@H](NC(=O)c3c(Cl)cccc3Cl)C(=O)O)c3ncccc23)c(=O)n(C)c2ccccc12 (single isomer, unassigned) [Example 48]	2.1	–
Cc1c(-c2ccc(C[C@H](NC(=O)c3c(Cl)cccc3Cl)C(=O)O)c3ncccc23)c(=O)n(C)c2ccc(C(F)(F)F)cc12 [Example 66, (S)-2-(2,6-dichlorobenzamido)-3-(1,4-dimethyl-2-oxo-6-(trifluoromethyl)-1,2-dihydro-[3,5′-biquinolin]-8′-yl)propanoic acid]	6.2	–
O=C(N[C@@H](Cc1ccc(-c2cccc[n+]2[O-])c2cccnc12)C(=O)O)c1c(Cl)cccc1Cl [Example 38]	212	–
Cc1c(-c2ccc(C[C@H](NC(=O)c3c(F)cccc3F)C(=O)O)c3ncccc23)c(=O)n(C)c(=O)n1C (single isomer, unassigned) [Example 82]	39	–
CCOCc1cc(OC)c(-c2cnc(C[C@H](NC(=O)c3c(F)cccc3F)C(=O)O)c3cccnc23)c(OC)c1 [Example 167, (S)-2-(2,6-difluorobenzamido)-3-(8-(4-(ethoxymethyl)-2,6-dimethoxyphenyl)-1,6-naphthyridin-5-yl)propanoic acid]	836	–
CS(=O)(=O)Nc1cc(F)c(C(=O)N[C@@H](Cc2ccc(-c3c(Cl)cc(F)cc3Cl)c3cccnc23)C(=O)O)c(F)c1 [Example 4, (S)-3-(5-(2,6-dichloro-4-fluorophenyl)quinolin-8-yl)-2-(2,6-difluoro-4-(methylsulfonamido)benzamido)propanoic acid]	26	–
CN(C)C(=O)Oc1ccc(C[C@H](NC(=O)c2c(Cl)cccc2Cl)C(=O)O)c2ncccc12 [Example 89, (S)-2-(2,6-dichlorobenzamido)-3-(5-((dimethylcarbamoyl)oxy)quinolin-8-yl)propanoic acid]	–	173
CC[C@@H](Nc1cc(F)c(C(=O)N[C@@H](Cc2ccc(-c3c(C(F)(F)F)cc(C)n(C)c3=O)c3ccccc23)C(=O)O)c(F)c1)C(F)(F)F (single isomer, unassigned) [Example 135]	1	–
Cc1c(-c2ccc(C[C@H](NC(=O)c3c(Cl)cccc3Cl)C(=O)O)c3ccccc23)c(=O)n(C)c2ccccc12 (single isomer, unassigned) [Example 118]	2.5	–
COc1cc(F)c(F)cc1-c1ccc(C[C@H](NC(=O)c2c(Cl)cccc2Cl)C(=O)O)c2nccc(C)c12 [Example 97, (S)-2-(2,6-dichlorobenzamido)-3-(5-(4,5-difluoro-2-methoxyphenyl)-4-methylquinolin-8-yl)propanoic acid]	97.2	–
O=C(N[C@@H](Cc1ccc(-c2c(Cl)cc(F)cc2Cl)c2c1C=CCO2)C(=O)O)c1c(Cl)cccc1Cl [Example 169, (S)-3-(8-(2,6-dichloro-4-fluorophenyl)-2H-chromen-5-yl)-2-(2,6-dichlorobenzamido)propanoic acid]	142	–
Cc1cc(C(F)(F)F)c(-c2ccc(C[C@H](NC(=O)c3c(F)cc(N4CCOC[C@@H]4C(F)(F)F)cc3F)C(=O)O)c3ccccc23)c(=O)n1C (single isomer, unassigned) [Example 128]	1.7	–
Cc1cc(C(F)(F)F)c(-c2ccc(C[C@H](NC(=O)c3c(Cl)cccc3Cl)C(=O)O)c3ncccc23)c(=O)n1C (single isomer, unassigned) [Example 61]	15.1	–

More lines, main results first:

EC50 (read-out: EC50 α4β7) [nM]	SMILES	EC50 (EC50 α4β7 (nM)) [nM]
0.8	COc1cccc(OC)c1-c1ccc(C[C@H](NC(=O)c2c(F)cc(NS(=O)(=O)c3ccc(-n4cncn4)cc3)cc2F)C(=O)O)c2ccccc12 [Example 104, (S)-2-(4-((4-(1H-1,2,4-triazol-1-yl)phenyl)sulfonamido)-2,6-difluorobenzamido)-3-(4-(2,6-dimethoxyphenyl)naphthalen-1-yl)propanoic acid]	–
0.8	CCOCc1cc(OC)c(-c2ccc(C[C@H](NC(=O)c3c(F)cc(NS(=O)(=O)c4ccc(-c5ccnc(F)c5)cc4)cc3F)C(=O)O)c3ccccc23)c(OC)c1 [Example 105, (S)-2-(2,6-difluoro-4-((4-(2-fluoropyridin-4-yl)phenyl)sulfonamido)benzamido)-3-(4-(4-(ethoxymethyl)-2,6-dimethoxyphenyl)naphthalen-1-yl)propanoic acid]	–
0.08	Cc1cc(N2CCOC[C@@H]2C(F)(F)F)cc(F)c1C(=O)N[C@@H](Cc1ccc(-c2c(C(F)(F)F)cc(C)n(C)c2=O)c2nccnc12)C(=O)O (atropisomer, axis not shown) [Example 178]	–
0.3	Cc1c(-c2ccc(C[C@H](NC(=O)c3c(F)cc(N4CCOC[C@@H]4C(F)(F)F)cc3F)C(=O)O)c3ccccc23)c(=O)n(C)c(=O)n1C [Example 138, (S)-2-(2,6-difluoro-4-((R)-3-(trifluoromethyl)morpholino)benzamido)-3-(4-(1,3,6-trimethyl-2,4-dioxo-1,2,3,4-tetrahydropyrimidin-5-yl)naphthalen-1-yl)propanoic acid]	–
0.4	CC[C@@H](Nc1cc(F)c(C(=O)N[C@@H](Cc2ccc(-c3c(C)c4cc(F)ccc4n(C)c3=O)c3nccnc23)C(=O)O)c(F)c1)C(F)(F)F [Example 158, (S)-2-(2,6-difluoro-4-(((R)-1,1,1-trifluorobutan-2-yl)amino)benzamido)-3-(8-(6-fluoro-1,4-dimethyl-2-oxo-1,2-dihydroquinolin-3-yl)quinoxalin-5-yl)propanoic acid]	–
0.9	COc1cccc(OC)c1-c1ccc(CC(NC(=O)c2c(F)cc(NS(=O)(=O)c3ccc(-n4cncn4)cc3)cc2F)C(=O)O)c2cnccc12 (stereo not drawn) [Example 163, 2-(4-((4-(1H-1,2,4-triazol-1-yl)phenyl)sulfonamido)-2,6-difluorobenzamido)-3-(5-(2,6-dimethoxyphenyl)isoquinolin-8-yl)propanoic acid]	–
0.9	CC[C@@H](Nc1cc(F)c(C(=O)N[C@@H](Cc2ccc(-c3c(OC)cnn(C)c3=O)c3ccccc23)C(=O)O)c(F)c1)C(F)(F)F (single isomer, unassigned) [Example 137]	–
